Results as given in patent US10294202B2, “Pyrrolidinones as herbicides” (FMC Corporation, priority 2013, dated 2019).

Assays:
Assay in all cases: Test C pre-/postemergence herbicide test
Russian thistle = assay type: in vivo, Salsola kali; details: Preemergence
Source text: (§1) Seeds of plant species selected from blackgrass (Alopecurus myosuroides), ryegrass, Italian (Italian ryegrass, Lolium multiflorum), wheat (winter wheat, Triticum aestivum), galium (catchweed bedstraw, Galium aparine), corn (Zea mays), crabgrass, large (large crabgrass, Digitaria sanguinalis), foxtail, giant (giant foxtail, Setaria faberii), johnsongrass (Sorghum halepense), lambsquarters (Chenopodium album), morningglory (Ipomoea coccinea), nutsedge, yellow (yellow nutsedge, Cyperus esculentus), pigweed (Amaranthus retroflexus), ragweed (common ragweed, Ambrosia elatior), soybean (Glycine max), barnyardgrass (Echinochloa crus-galli), oilseed rape (Brassica napus), waterhemp (common waterhemp, Amaranthus rudis), kochia (Kochia scoparia), oat, wild (wild oat, Avena fatua), surinam grass (Brachiaria decumbens), foxtail, green (green foxtail, Setaria viridis), goosegrass (Eleusine indica), bromegrass, downy (downy bromegrass, Bromus tectorum), nightshade (eastern black nightshade, Solanum ptycanthum), cocklebur (common cocklebur, Xanthium strumarium), cupgrass, woolly (woolly cupgrass, Eriochloa villosa), bermudagrass (Cynodon dactylon), sunflower, (common oilseed sunflower, Helianthus annuus), Russian thistle (Salsola kali) and velvetleaf (Abutilon theophrasti) were planted into a blend of loam soil and sand and treated preemergence with test chemicals formulated in a non-phytotoxic solvent mixture which included a surfactant. At the same time, plants selected from these crop and weed species and also barley (winter barley, Hordeum vulgare), […]), chickweed (common chickweed, Stellaria media), deadnettle (henbit deadnettle, Lamium amplexicaule), and canarygrass (littleseed canarygrass, Phalaris minor) were planted in pots containing Redi-Earth® planting medium (Scotts Company, 14111 Scottslawn Road, Marysville, Ohio 43041) comprising spaghnum peat moss, vermiculite, wetting agent and starter nutrients and treated with postemergence applications of test chemicals formulated in the same manner. Plants ranged in height from 2 to 18 cm (1- to 4-leaf stage) for postemergence treatments. Treated plants and controls were maintained in a greenhouse for 13 to 15 days, after which time all species were compared to controls and visually evaluated. Plant response ratings, summarized in Table C, are based on a scale of 0 to 100 where 0 is no effect and 100 is complete control. A dash (-) response means no test result.

foxtail, green = assay type: in vivo, Setaria viridis; details: Preemergence; for Foxtail, Green plant response rating: 31 g ai/ha
How it was run: (§2)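 Test compounds, formulated in a surfactant-containing non-phytotoxic solvent blend, are applied to seeded loam/sand soil (preemergence) and to young plants at the 1- to 4-leaf stage in peat-based medium (postemergence). Plants stay 13 to 15 days under greenhouse conditions, then are scored visually relative to controls, 0 = no effect, 100 = complete control.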

bermudagrass = assay type: in vivo, Cynodon dactylon; details: Preemergence; for Bermudagrass plant response rating: 31 g ai/ha
Source text: as §1

nightshade = assay type: in vivo, Solanum ptycanthum; details: Preemergence
How it was run: as §2

surinam grass = assay type: in vivo, Brachiaria decumbens; details: Preemergence
How it was run: as §2

bromegrass, downy = assay type: in vivo, Bromus tectorum; details: Preemergence; for Bromegrass, Downy plant response rating: 31 g ai/ha
How it was run: as §2

cupgrass, woolly = assay type: in vivo, Eriochloa villosa; details: Preemergence; for Cupgrass, Woolly plant response rating: 31 g ai/ha
How it was run: as §2

goosegrass = assay type: in vivo, Eleusine indica; details: Preemergence; for Goosegrass plant response rating: 31 g ai/ha
Source text: as §1

sunflower = assay type: in vivo, Helianthus annuus; details: Preemergence
How it was run: as §2

cocklebur = assay type: in vivo, Xanthium strumarium; details: Preemergence; for Cocklebur plant response rating: 31 g ai/ha
How it was run: as §2

[1] = 125 g ai/ha, scale 0 to 100 (0 no effect, 100 complete control)
[2] = scale 0 to 100 (0 no effect, 100 complete control)
[3] = 250 g ai/ha, scale 0 to 100 (0 no effect, 100 complete control)
[4] = 31 g ai/ha, scale 0 to 100, 0 is no effect and 100 is complete control
[5] = scale 0 to 100, 0 is no effect and 100 is complete control

| SMILES | Plant response rating, Russian Thistle (Russian thistle; 62 g ai/ha, scale 0 to 100) | Plant response rating, Russian Thistle (Russian thistle; [1]) | Plant response rating, Foxtail, Green (foxtail, green; 62 g ai/ha, scale 0 to 100) | Plant response rating, Foxtail, Green (foxtail, green; [1]) | Plant response rating, Foxtail, Green (foxtail, green; [3]) | Plant response rating, Bermudagrass (bermudagrass; 62 g ai/ha, scale 0 to 100) | Plant response rating, Bermudagrass (bermudagrass; [1]) | Plant response rating, Bermudagrass (bermudagrass; [3]) | Plant response rating, Surinam Grass (surinam grass; 62 g ai/ha, scale 0 to 100) | Plant response rating, Surinam Grass (surinam grass; [1]) | Plant response rating, Bromegrass, Downy (bromegrass, downy; 62 g ai/ha, scale 0 to 100) | Plant response rating, Bromegrass, Downy (bromegrass, downy; [1]) | Plant response rating, Bromegrass, Downy (bromegrass, downy; [3]) | Plant response rating, Cupgrass, Woolly (cupgrass, woolly; 62 g ai/ha, scale 0 to 100) | Plant response rating, Cupgrass, Woolly (cupgrass, woolly; [1]) | Plant response rating, Cupgrass, Woolly (cupgrass, woolly; [3]) | Plant response rating, Goosegrass (goosegrass; 62 g ai/ha, scale 0 to 100) | Plant response rating, Goosegrass (goosegrass; [1]) | Plant response rating Sunflower (sunflower; 62 g ai/ha, scale 0 to 100) | Plant response rating Sunflower (sunflower; [1]) | other results |
| --- | --- | --- | --- | --- | --- | --- | --- | --- | --- | --- | --- | --- | --- | --- | --- | --- | --- | --- | --- | --- | --- |
| O=C1NCC(c2cccc(Br)c2)C1C(=O)Nc1cccc(F)c1F (stereo not drawn) [Compound 64] | 0 | 0 | 85 | 90 | 98 | 0 | 25 | 55 | 50 | 65 | 0 | 0 | 50 | 70 | 85 | 90 | 20 | 25 | 0 | 0 | Foxtail, Green plant response rating (foxtail, green; [2]): 70; Bermudagrass plant response rating (bermudagrass; [2]): 0; Plant response rating, Nightshade (nightshade; 62 g ai/ha, scale 0 to 100): 0; Plant response rating, Nightshade (nightshade; [1]): 0; Bromegrass, Downy plant response rating (bromegrass, downy; [2]): 0; Cupgrass, Woolly plant response rating (cupgrass, woolly; [2]): 30; Goosegrass plant response rating (goosegrass; [2]): 20; Plant response rating, Cocklebur (cocklebur; 62 g ai/ha, scale 0 to 100): 0 |
| Cc1ccccc1NC(=O)C1C(=O)NCC1c1cc(F)c(F)c(F)c1 (racemic) [Compound 35] | 0 |  | 98 | 98 | 98 | 0 | 0 | 75 | 90 | 100 | 0 | 5 | 40 | 80 | 85 | 90 | 0 | 5 | 0 | 10 | Foxtail, Green plant response rating (foxtail, green; [2]): 90; Bermudagrass plant response rating (bermudagrass; [2]): 0; Plant response rating, Nightshade (nightshade; 62 g ai/ha, scale 0 to 100): 0; Plant response rating, Nightshade (nightshade; [1]): 0; Bromegrass, Downy plant response rating (bromegrass, downy; [2]): 0; Cupgrass, Woolly plant response rating (cupgrass, woolly; [2]): 55; Goosegrass plant response rating (goosegrass; [2]): 0; Cocklebur plant response rating (cocklebur; [2]): 0; Plant response rating, Cocklebur (cocklebur; 62 g ai/ha, scale 0 to 100): 0; Plant response rating, Cocklebur (cocklebur; [1]): 0; Plant response rating, Cocklebur (cocklebur; [3]): 0 |
| O=C1NCC(c2ccc(F)cc2)C1C(=O)Nc1ccccc1F (racemic) [Compound 16] | 0 | 0 | 35 | 80 | 90 | 0 | 90 | 95 | 95 | 98 | 5 | 30 | 35 | 95 | 95 | 95 | 0 | 0 | 0 | 0 | Foxtail, Green plant response rating (foxtail, green; [2]): 5; Bermudagrass plant response rating (bermudagrass; [2]): 0; Plant response rating, Nightshade (nightshade; 62 g ai/ha, scale 0 to 100): 0; Plant response rating, Nightshade (nightshade; [1]): 0; Bromegrass, Downy plant response rating (bromegrass, downy; [2]): 0; Cupgrass, Woolly plant response rating (cupgrass, woolly; [2]): 55; Goosegrass plant response rating (goosegrass; [2]): 0; Cocklebur plant response rating (cocklebur; [2]): 0; Plant response rating, Cocklebur (cocklebur; 62 g ai/ha, scale 0 to 100): 0; Plant response rating, Cocklebur (cocklebur; [1]): 0; Plant response rating, Cocklebur (cocklebur; [3]): 0 |
| O=C1NCC(c2cccc(Br)c2)C1C(=O)Nc1ccccc1F (stereo not drawn) [Compound 66] | 0 | 0 | 80 | 90 | 98 | 0 | 0 | 0 | 0 | 75 | 0 | 0 | 5 | 75 | 80 | 85 | 5 | 10 | 0 | 0 | Russian Thistle plant response rating (Russian thistle; [4]): 0; Foxtail, Green plant response rating (foxtail, green; [5]): 50; Bermudagrass plant response rating (bermudagrass; [5]): 0; Nightshade plant response rating (nightshade; [4]): 0; Plant response rating, Nightshade (nightshade; 62 g ai/ha, scale 0 to 100): 0; Plant response rating, Nightshade (nightshade; [1]): 0; Surinam Grass plant response rating (surinam grass; [4]): 0; Bromegrass, Downy plant response rating (bromegrass, downy; [5]): 0; Cupgrass, Woolly plant response rating (cupgrass, woolly; [5]): 10; Goosegrass plant response rating (goosegrass; [5]): 5; Sunflower plant response rating (sunflower; [4]): 0; Cocklebur plant response rating (cocklebur; [5]): 0 |
| O=C1NCC(c2ccc(F)c(Cl)c2)C1C(=O)Nc1cccc(F)c1F (stereo not drawn) [Compound 59] | 0 | 0 | 90 | 90 | 98 | 20 | 40 | 50 | 35 | 60 | 0 | 0 | 20 | 70 | 80 | 80 | 25 | 35 | 5 | 15 | Foxtail, Green plant response rating (foxtail, green; [2]): 85; Bermudagrass plant response rating (bermudagrass; [2]): 20; Plant response rating, Nightshade (nightshade; [1]): 25; Bromegrass, Downy plant response rating (bromegrass, downy; [2]): 0; Cupgrass, Woolly plant response rating (cupgrass, woolly; [2]): 40; Goosegrass plant response rating (goosegrass; [2]): 15; Plant response rating, Cocklebur (cocklebur; 62 g ai/ha, scale 0 to 100): 0 |
| O=C1NCC(c2ccc3c(c2)OC(F)(F)O3)C1C(=O)Nc1cccc(F)c1F (stereo not drawn) [Compound 62] | 30 | 85 | 90 | 90 | 90 | 30 | 50 | 60 | 60 | 80 | 0 | 0 | 0 | 75 | 80 | 85 | 25 | 70 | 20 | 25 | Foxtail, Green plant response rating (foxtail, green; [2]): 75; Bermudagrass plant response rating (bermudagrass; [2]): 0; Plant response rating, Nightshade (nightshade; 62 g ai/ha, scale 0 to 100): 15; Bromegrass, Downy plant response rating (bromegrass, downy; [2]): 0; Cupgrass, Woolly plant response rating (cupgrass, woolly; [2]): 65; Goosegrass plant response rating (goosegrass; [2]): 10; Cocklebur plant response rating (cocklebur; [2]): 0; Plant response rating, Cocklebur (cocklebur; [1]): 0; Plant response rating, Cocklebur (cocklebur; [3]): 5 |
